Test results reported in US20260374829A1, “METHODS AND PLATFORM RELATED TO FLUORESCENT PROTEIN BIOSENSORS” (BOARD OF REGENTS, THE UNIVERSITY OF TEXAS SYSTEM, priority 2023, published 2026).

Columns and labels:
[1] = test system: free ADPR sensor (cpVenus integrated between amino acids 118 and 119 of Shewanella oneidensis NrtR, Uniprot Q8EFJ3; K435A, S436D, D122N), SEQ ID NO: 1; assay: Fluorescence response of purified free ADPR sensor to ligands in vitro; assay type: binding; conditions: role: ligand; for sensor fluorescence response (in words): FIG. 5A; for sensor responsivity (in words): structurally related molecules, FIG. 5
From the text: (§1) The sensor is based on a circularly-permutated single fluorescent protein design (Baird et al, 1999 PNAS and reviewed in Nasu et al, 2021 Nat Chem Biol). For the fluorescence readout, the GFP-derived fluorescent protein, Venus, was used. Venus was circularly permutated and reforms to its fluorescent beta barrel fold by introducing a cut between amino acids 144 and 145 and connecting its original N- and C-termini with a 5 amino acid GGSGG linker sequence (circularly permutated Venus now referred to as cpVenus or cpV). Circular permutation permits attachment of an analyte binding domain in close proximity to the chromophore of Venus. The analyte binding domain confers selectivity of ligand binding to the sensor. The Nudix-like bacterial transcription factor NrtR from Shewanella oneidensis was used that is an ADPR-dependent transcriptional repressor (Rodionov et al, 2008 Nucleic Acids Res; Gao et al, 2019 eLIFE). The cpV protein was integrated between amino acids 118 and 119 in the sequence of NrtR (Uniprot Q8EFJ3).
Based on these analyses, cpV integrated into site 118/119 in NrtR was chosen for further analyses. This site is adjacent to the hinge region of the ligand-binding site, and it is within an alpha-helix that undergoes a disruptive loss of secondary structure when free ADPR binds (FIG. 1). The model is that this structural change is transduced to the nearby chromophore of cpV to cause a change in fluorescence intensity. This may occur through disruption of the chromophore or shifting the pKa of the chromophore.
Due to the compact nature of NrtR, attempts to use truncation to eliminate the DNA-binding domain appeared to destabilize the whole protein and thus could not be used. Instead, three point mutations were identified and used to ablate the outward facing overall positive change on this domain. These point mutations are distinct from the ligand-binding domain. The specific sites and their mutations (K435A and S436D) were identified through empirical screening and it was determined that in combination they alleviated aggregation of the sensor when it was ectopically expressed (FIG. 2).
The mutation D122N was also incorporated to reduce the number of polar and charged side-chains in proximity to the sensor's chromophore. The rationale was that charged residues could shift the local pKa of the chromophore promoting in its protonation. Introduction of D122N improved the brightness of the sensor and stabilized its pH-sensitivity between pH 7.4-8.0 (FIG. 3)
The sequence of the free ADPR sensor is shown in SEQ ID NO: 1.
The purified sensor (FIG. 4) decreased in fluorescence intensity with addition of free ADPR. At high concentrations, it saturated with ~80% diminishment of sensor brightness that represented an […] dose-dependent response (FIG. 4B, red). […] It was determined that the sensor responds to free ADPR with a Kd~2 μM±1 μM and is thus poised to detect intracellular free ADPR concentrations (Heiner, et al, 2006 Biochem J; Gasser and Guse, 2005 J Chromatogr B Analyt Technol Biomed Life Sci; Gasser et al, 2006 J Biol Chem).

[2] = test system: PARP1/2; assay: Free ADPR sensor response in live cells after acute H2O2 treatment (confocal imaging), with PARP1/2 inhibitor; assay type: cell-based; conditions: role: inhibitor (PARP1/2), FIG. 7
Procedure: (§2) Values are mean (F/F0)±SD, analyzed by confocal microscopy.
(§3) With confocal imaging, it was determined that the free ADPR sensor responded in live cells to an accumulation of free ADPR upon oxidation stress by acute H2O2 treatment (FIG. 7). In this experimental paradigm, H2O2 induces PARP1/2 to generate poly-ADPR chains, and due to the activities of glycohydrolases, this in turn leads to increased levels of free ADPR monomers. […] The generation of free ADPR was confirmed by a GCaMP7s sensor that monitored the resulting Ca^2+ influx from activation of co-expressed TRPM2 (FIG. 7B).

[3] = test system: free ADPR sensor; assay: Free ADPR sensor response in live cells to H2O2 treatment (confocal microscopy); assay type: cell-based; conditions: role: activator (oxidation stress), acute H2O2 treatment, FIG. 7
Procedure: as §2, §3

[4] = test system: TRPM2; assay: TRPM2 response in live cells to H2O2 treatment, Ca2+ influx reported by GCaMP7s; assay type: cell-based; conditions: role: activator (via increased free cytosolic ADPR), GCaMP7s readout, FIG. 7B
Procedure: as §2, §3

[5] = test system: free ADPR sensor no binding control R98E (cpVenus in Shewanella oneidensis NrtR, Uniprot Q8EFJ3; binding pocket mutant R98E), SEQ ID NO: 2; assay: Fluorescence response of non-binding control sensor to ligands in vitro; conditions: role: ligand, FIG. 4B
From the text: as §1
The purified sensor (FIG. 4) decreased in fluorescence intensity with addition of free ADPR. At high concentrations, it saturated with ~80% diminishment of sensor brightness that represented an ~4-fold dose-dependent response (FIG. 4B, red). […]

Structure (SMILES)	sensor fluorescence response (in words) [1]	further results
Nc1ncnc2c1ncn2[C@H]1C[C@H](O)[C@@H](COP(=O)(O)OP(=O)(O)OC[C@H]2OC(O)[C@H](O)[C@@H]2O)O1 (stereo partly drawn) [2′-deoxy ADPR]	responds	
NC(=O)c1ccc[n+]([C@@H]2O[C@H](COP(=O)(O)OP(=O)(O)OC[C@H]3O[C@@H](n4cnc5c(N)ncnc54)[C@H](O)[C@@H]3O)[C@@H](O)[C@H]2O)c1 [NAD^+, oxidized nicotinamide adenine dinucleotide]	does not respond	
Nc1ncnc2c1ncn2[C@@H]1O[C@H](COP(=O)(O)OP(=O)(O)O)[C@@H](O)[C@H]1O [ADP, adenosine diphosphate]	does not respond	sensor responsivity (in words) [1]: minimal responsivity
Nc1ncnc2c1ncn2[C@@H]1O[C@@H]2COP(=O)(O)OP(=O)(O)OC[C@H]3OC(O[C@@H]1[C@@H]2O)[C@H](O)[C@@H]3O [2′-cyclic ADPR]	does not respond	
Nc1ncnc2c1ncn2[C@@H]1O[C@@H]2COP(=O)(O)OP(=O)(O)OC[C@H]3OC(O[C@H]2[C@H]1O)[C@H](O)[C@@H]3O [3′-cyclic ADPR]	does not respond	
Nc1ncnc2c1ncn2[C@@H]1O[C@H](COP(=O)(O)OP(=O)(O)OC[C@H]2O[C@@H]([n+]3cccc(C(=O)O)c3)[C@H](O)[C@@H]2O)[C@@H](O)[C@H]1O [NAAD^+]	does not respond	
O=C(c1cc(Cc2n[nH]c(=O)c3ccccc23)ccc1F)N1CCN(C(=O)C2CC2)CC1 [olaparib]		effect on H2O2-induced free ADPR sensor responses (in words) [2]: eliminated sensor responses
NC(=O)C1=CN([C@@H]2O[C@H](COP(=O)(O)OP(=O)(O)OC[C@H]3O[C@@H](n4cnc5c(N)ncnc54)[C@H](O)[C@@H]3O)[C@@H](O)[C@H]2O)C=CC1 [NADH, nicotinamide adenine dinucleotide]	does not respond	
Nc1ncnc2c1ncn2[C@@H]1O[C@H](COP(=O)(O)OP(=O)(O)OP(=O)(O)O)[C@@H](O)[C@H]1O [ATP, adenosine triphosphate]	does not respond	sensor responsivity (in words) [1]: minimal responsivity
Nc1ncnc2c1ncn2[C@@H]1O[C@H](COP(=O)(O)O)[C@@H](O)[C@H]1O [AMP, adenosine monophosphate]	does not respond	
CC(=O)O[C@H]1C(O)O[C@H](COP(=O)(O)OP(=O)(O)OC[C@H]2O[C@@H](n3cnc4c(N)ncnc43)[C@H](O)[C@@H]2O)[C@H]1O (stereo partly drawn) [O-Acetyl ADPR]	responds	
OO [H2O2]		free ADPR sensor response to accumulation of free ADPR (in words) [3]: responded; TRPM2 response, influx of intracellular Ca2+ (in words) [4]: responds with an influx of intracellular Ca^2+
Nc1ncnc2c1ncn2[C@@H]1O[C@H](COP(=O)(O)OP(=O)(O)OC[C@H]2OC(O)[C@H](O)[C@@H]2O)[C@@H](O)[C@H]1OP(=O)(O)O (stereo partly drawn) [phospho ADPR]	responds	
N=c1c2ncn3c2ncn1[C@@H]1O[C@H](COP(=O)(O)OP(=O)(O)OC[C@H]2O[C@@H]3[C@H](O)[C@@H]2O)[C@@H](O)[C@H]1O [cyclic ADPR]	does not respond	
Nc1ncnc2c1ncn2[C@@H]1O[C@H](COP(=O)(O)OP(=O)(O)OC[C@H]2OC(O)[C@H](O)[C@@H]2O)[C@@H](O)[C@H]1O (stereo partly drawn) [free ADPR, Adenosine 5′Di-Phosphate Ribose]	responds	fluorescence intensity with increasing free ADPR concentrations (in words) ([1]; FIG. 4B, mean of n=3): decreases; diminishment of sensor brightness at saturation ([1]; at high concentrations (saturated)): ~ 80%; dose-dependent response (fold) ([1]; fluorescence intensity, at saturation): ~ 4 fold; response of binding mutant to free ADPR (in words) [5]: did not respond
Nc1ncnc2c1ncn2[C@@H]1O[C@H](COP(=O)(O)OP(=O)(O)OC[C@H]2O[C@@H]([n+]3cccc(C(=O)O)c3)[C@H](O)[C@@H]2O)[C@@H](O)[C@H]1OP(=O)(O)O [NaADP^+]	does not respond	
O=C(CO)[C@H](O)[C@H](O)COP(=O)(O)O [Ribulose-5-Phosphate]	does not respond	
